Laboratory results reported in patent US9409901B2, “Compositions and methods for treating or preventing diseases or disorders associated with misregulated EIF4E” (Bantam Pharmaceutical, LLC, priority 2012, dated 2016).
Read-outs that look alike come from different tables or passages of the source. Blank lines part the entries; values can stand above or below the compound they belong to.

How the values were obtained:
[1] = system: AU565 (breast cancer ER−/PR−, her2−nue+); assay: Cell proliferation assay, AU565; assay type: cell-based
Procedure: Cells: AU565 (breast cancer ER^−/PR^−, her2^−nue^+) • 1. Cells were resuspended in media containing 10% FBS and 2× gentamicin. Resuspended cells were transferred to an assay plate (100 μL aliquots; 5,200 cells/well). • 2. test compound(s) were serially diluted in assay media. Aliquots of 100 μLof the test compound solution was added to the resuspended cells, creating a total volume of 200 μL. • 3. Plates were incubated at 37 C for 91 hours. • 4. 20 μL of Promega Substrate CellTiter 96 Aqueous One Solution Reagent was added to each well. • 5. Plates were incubated at 37 C and read at 490 nm.

[2] = Compound solubility in DMSO; assay type: physicochemical
AU565 = assay: SBH cell AU565; assay type: cell-based; conditions: AU565 cells
HeLa Cells = HeLa Cells FQ IC50; assay type: cell-based
Procedure: Exposed tryptophan side chains are measured in a spectrometer. Tryptophan, when excited at 280 nm, emits light at 350 nm. The degree to which tryptophan emissions are quenched is a measure of binding of a test compound to eIF4E, as tryptophan side chains become “buried” upon compound binding.
HeLa cells were transfected with a bicistronic dual luciferase construct (2×EMCV Luc Plasmid-firefly and EMCV IRES dependent Renilla luciferase). One reporter construct was CAP-dependent, and the other was not. The cells were treated with DMSO in the presence or absence of various compounds described herein for 10 hours (compounds shown are in 50 μM serial dilutions). Cells were evaluated for Luc activity according to the Promega Dual Glo manufacturer instructions.

eIF4E/eIF4G interaction = eIF4E/eIF4G interaction (Homo sapiens, UniProt P06730); assay: Fluorescence polarization (FP) assay of eIF4E/eIF4G interaction; assay type: binding
Procedure: The effect of the bound compound on the activity of eIF4e was further addressed using a Fluorescence Polarization (FP) assay. The FP assay was used to monitor the eIF4E/eIF4G interaction. The eIF4E/eIF4G complex was exposed to Structure 10, and the dissociation of eIF4G from eIF4E was measured using the FP assay.
18 amino acid FITC-labeled 4G peptide (Moerke, N. et al., Cell, 128:257-67, 2007).
Compounds as 12.5 mM solutions in DMSO
A master mixture of 20 nM peptide, 400 μM recombinant […] in NMR buffer was made. 240 μL of this master mix was transferred to a separate tube and 3.2 μL of DMSO was added. 30 μL aliquots of this mixture was then added to each of six wells of 384-well black plate. These are the maximum polarization wells. The minimum polarization wells were determined using peptide only at a concentration of 20 nM. The experimental wells were created by adding 3.2 μL of each 12.5 mM solution of a test compound to the master mixture. The compound mixtures were serially diluted to create a six point dose response curve (with six different concentrations of each test compound).
The triplicate averages of the readings were determined. […] The activity of compound at each concentration was determined by comparing the FP signal in the presence of compound to the control (no compound) value. The percent inhibition is =100−((FP compound/FP control)×100).

eIF4E = eIF4E (Homo sapiens, UniProt P06730); assay: Binding to eIF4E demonstrated by NMR; conditions: FIG. 7
polysomes = assay: Polysome profile; assay type: cell-based; conditions: sucrose gradient, FIG. 11
Procedure: Cells, plated in 140 mm culture dishes; in mid log phase of growth (4-5 plates per treatment. Test compounds as 40 mM master solutions in DMSO Lysis buffer: 15 mM Tris pH 7.4, 15 mM MgCl2, 150 mM NaCl, 1% TritonX-100, 100 μg/mL cycloheximide, 1 mg/mL Heparin. Polysome buffer: 15 mM Tris pH7.4, 15 mM MgCl2, 150 mM NaCl, 100 μg/mL cycloheximide. • 1. Cells were incubated with the desired concentrations of each compound for 2 hours. • 2. Cells were incubated with 100 μg/mL cycloheximide in media for 5 min at 37 C, after which the media was removed from the late, and the plate was put on ice. • 3. Cells were washed twice with 5 mL PBS+100 μg/mL CHX. • 4. Cells were harvested, resuspended in 375 μl of LSB with 1 mM DTT and 100 U/mL RNAsin. • 5. 125 μL of lysis buffer was added, and the cells were subjected to 10 strokes in a homgenizer. • 6. The lysed cells were spun to remove cellular debris, and the supernatant was transferred to fresh tubes. • 7. 15 μL of 5M NaCl and 50 μL of 10 mg/mL Heparin was added. A 20 μL aliquot was taken and stored. The remainder of the supernatant mixture was taken to a volume of 1 mL and the OD260/280 was read. • 8. Aliquots of the supernatant mixture were then applied to a 15-50% sucrose gradient and spun for 105 minutes. The sucrose gradient was then fractionated and the OD254 was measured. […]

[3] = system: CRL-2813 human melanoma xenografts; assay: CRL-2813 human melanoma xenografts, protein expression (immunostaining); assay type: in vivo, mice
Procedure: • 1. CRL-2813 cancer cells were grown to obtain ≈5×10^6 cells for each tumor. • 2. Cells were harvested and washed in PBS. • 3. Harvested and washed cells were resuspended in 50% Matrigel™/medium at a density of ≈5×10^6 cells in 100 μL. • 4. 100 μL of the cell suspension was injected subcutaneously • 5. Tumors were grown to ≈150 mm^3 (approx. 2 weeks). • 1. Mice were randomly distributed to treatment and control groups and observed daily. • 2. A test compound or vehicle alone was injected twice daily with at least 10 hrs time interval between doses • Note: Vehicle: corn oil. Drug solution: 35 mg/mL of compound first dissolved in ethanol, mixed with corn oil followed by ethanol evaporation. Dosage: each dose=125 μL vehicle or drug suspension i.p. • 3. Tumor volume was measured weekly. • 4. At the conclusion of experiment, mice were sacrificed, and tumors were removed and weighed. • 5. Remove tumor and weigh • 6. The removed tumors were fixed in formalin solution or flash frozen and processed for histology/immunocytochemistry, or pull-down.
4EGI-1 inhibits expression of oncogenic proteins in melanoma tumors. CRL-2813 human melanoma xenografts were immunostained with antibodies specific for cyclin D1, cyclin E, c-myc, Bcl-2, VEGF or PCNA (FIG. 13). The bar graph is the quantification of immunostaining data (FIG. 14).

[4] = AU-565, 91 hours, read-out: ED50 (μM), anti-proliferative activity against AU-565
[5] = fluorescence polarization, some cells give words
[6] = AU-565 cells, read-out: AU-565 EC50

Sequence of eIF4E/eIF4G interaction (P06730 whole entry, species assumed): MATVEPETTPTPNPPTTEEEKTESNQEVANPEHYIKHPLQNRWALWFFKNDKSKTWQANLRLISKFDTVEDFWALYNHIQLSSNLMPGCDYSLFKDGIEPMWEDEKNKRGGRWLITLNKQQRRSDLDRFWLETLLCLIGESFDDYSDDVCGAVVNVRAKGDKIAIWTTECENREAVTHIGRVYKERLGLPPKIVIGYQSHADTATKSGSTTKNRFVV
Sequence of eIF4E (P06730 whole entry, species assumed): as above

EC50 [1, 4]: 8.5 to 12.8 µM
SMILES: CCc1sc(-n2nc(C(=O)O)c3cc(C(F)(F)F)ccc32)nc1-c1cccc(OC)c1 [Structure 1]
% Growth Inhibition/μM ([1]; AU-565, at 40 μM): 70/40%

Compound Solubility DMSO [2]: half/less
EC50 (AU565): 12 to 18 µM
SMILES: CCOC(=O)CN(C)C(=O)c1nn(-c2nc(-c3cccc(OC)c3)c(C(C)C)s2)c2ccc(C(F)(F)F)cc12 [Structure 48]

Compound Solubility DMSO [2]: complete
EC50 (AU565): 9 to 14 µM
SMILES: COc1cccc(-c2nc(-n3nc(C(=O)c4nn[nH]n4)c4cc(C(F)(F)F)ccc43)sc2C(C)C)c1 [Structure 13]

EC50 [1, 4]: 21 to 32 µM
IC50 (HeLa Cells): 48.1 µM
SMILES: O=C(O)/C(Cc1ccccc1[N+](=O)[O-])=N/Nc1nc(-c2ccc(Cl)c(Cl)c2)cs1 [Structure 4EGI-1E, reference compound]
% Growth Inhibition/μM ([1]; AU-565, at 40 μM): 60/40%

FP EC50 (μM) (eIF4E/eIF4G interaction; [5]): some
Compound Solubility DMSO [2]: complete
EC50 (AU565): 28 to 41 µM
SMILES: COc1cccc(-c2nc(-n3nc(CC(=O)NCC(=O)O)c4cc(Cl)ccc43)sc2C(C)C)c1 [Structure 15]

EC50 [1, 4]: 4.8 to 7.1 µM
IC50 (HeLa Cells): 26.6 µM
SMILES: O=C(O)/C(Cc1ccccc1[N+](=O)[O-])=N\Nc1nc(-c2ccc(Cl)c(Cl)c2)cs1 [Structure 4EGI-1Z, reference compound]
% Growth Inhibition/μM ([1]; AU-565, at 10 μM): 30/10%

SMILES: COc1cccc(-c2nc(Cn3nc(C(=O)O)c4cc(C(F)(F)F)ccc43)sc2C(C)C)c1 [Structure 9]
EC50 (eIF4E/eIF4G interaction; [5]): 24 to 36 µM

EC50 [1, 6]: 16 to 25 µM
activity in fluorescence polarization assays (eIF4E/eIF4G interaction): showed activity
SMILES: COc1cccc(-c2nc(-n3nc(C(=O)O)c4cc(C#N)ccc43)sc2C(C)C)c1 [Structure 3]

EC50 [1, 4]: 5.6 to 8.4 µM
EC50 [1, 6]: 9.1 µM
SMILES: COc1cccc(-c2nc(-n3nc(C(=O)O)c4cc(C(F)(F)F)ccc43)sc2C(C)C)c1 [Structure 2]
% Growth Inhibition/μM ([1]; AU-565, at 40 μM): 79/40%

Compound Solubility DMSO [2]: half/less
SMILES: COC(=O)CNC(=O)c1nn(-c2nc(-c3cccc(OC)c3)c(C(C)C)s2)c2ccc(C(F)(F)F)cc12 [Structure 45]
SBH cell AU565 (μM) (AU565): low

EC50 ([1]; Homo sapiens, AU565, AU-565, 91 hours, read-out: ED50 (μM), anti-proliferative activity against AU-565): 1.2 to 1.8 µM
Binding to eIF4E by NMR (eIF4E): demonstrated
SMILES: COc1cccc(-c2nc(-n3cc(C(=O)N4CCNCC4)c4cc(C(F)(F)F)ccc43)sc2C(C)C)c1 [Structure 10]
inhibition at 3.1 µM ([1]; Homo sapiens, AU565, AU-565, at 3.1 μM, read-out: % Growth Inhibition/μM): 85%

FP EC50 (μM) (eIF4E/eIF4G interaction; [5]): good
Compound Solubility DMSO [2]: complete
EC50 (AU565): 5.3 to 8 µM
SMILES: COc1cccc(-c2nc(-n3nc(CC(=O)N(C)CC(=O)O)c4cc(Cl)ccc43)sc2C(C)C)c1 [Structure 16]

Compound Solubility DMSO [2]: complete
EC50 (AU565): 21 to 31 µM
SMILES: COc1cccc(-c2nc(-n3nc(CC(=O)O)c4cc(Cl)ccc43)sc2C(C)C)c1 [Structure 14]

SMILES: COc1ccc(C[C@H](N)C(=O)N[C@H]2[C@@H](O)[C@H](n3cnc4c(N(C)C)ncnc43)O[C@@H]2CO)cc1 [puromycin]
polysome density (polysomes): noticeable difference

Compound Solubility DMSO [2]: little/no
EC50 (AU565): 18 to 28 µM
SMILES: COC(=O)CN(C)C(=O)c1nn(-c2nc(-c3cccc(OC)c3)c(C(C)C)s2)c2ccc(C(F)(F)F)cc12 [Structure 46]

EC50 [1, 6]: 8.5 to 12.8 µM
SMILES: CCc1sc(-n2nc(C(=O)O)c3cc(C(F)(F)F)ccc32)nc1-c1cccc(OC)c1 [Structure 17]

SMILES: O=C(O)/C(Cc1ccccc1[N+](=O)[O-])=N/Nc1nc(-c2ccc(Cl)c(Cl)c2)cs1 [Structure 4EGI-1, 4EGI-1]
expression of oncogenic proteins in melanoma tumors ([3]; cyclin D1, cyclin E, c-myc, Bcl-2, VEGF or PCNA immunostaining): inhibits
housekeeping proteins (e.g., actin and tubulin) ([3]; xenograft model, FIG. 14): unaffected
translation of mRNA for growth-promoting and oncogenic proteins ([3]; xenograft model, FIG. 14): down-regulates
polysome density (polysomes): noticeable difference

Compound Solubility DMSO [2]: complete
SMILES: CCOC(=O)CNC(=O)c1nn(-c2nc(-c3cccc(OC)c3)c(C(C)C)s2)c2ccc(C(F)(F)F)cc12 [Structure 47]
SBH cell AU565 (μM) (AU565): none
